Data from US10703765B2 (priority 2014, dated 2020).
pKi: −log10 of the molar value. Structures can show the parent of a compound that is named as a salt. Where two headings read alike, the source gives them in different places.

Target: human σ1 receptor (Homo sapiens, UniProt Q99720)
Test: biochemical
Assay type: binding
Parameters: μ and σ1 dual binding: key to the marks not given beside the values
[1] = read-out: μ and σ1 dual binding
[2] = combined class from Ki-σ1 (human σ1 receptor, A1) and Ki-μ (human μ-opioid receptor, A2) radioligand binding

human σ1 receptor, sequence (Q99720 whole entry): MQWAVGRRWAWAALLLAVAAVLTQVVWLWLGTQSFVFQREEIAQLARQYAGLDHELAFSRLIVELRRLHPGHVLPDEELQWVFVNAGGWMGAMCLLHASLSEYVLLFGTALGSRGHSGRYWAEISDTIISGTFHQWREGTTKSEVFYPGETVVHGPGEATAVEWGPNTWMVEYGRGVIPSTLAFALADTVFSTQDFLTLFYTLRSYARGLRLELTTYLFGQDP

| SMILES | pKi [1] | further results |
| --- | --- | --- |
| CC1OC2(CCN(CCc3ccc(Cl)cn3)CC2)CN(c2ccccc2)C1=O (stereo not shown) [Example 38, 9-(2-(5-chloropypridin-2-yl)ethyl)-2-methyl-4-phenyl-1-oxa-4,9-diazaspiro[5.5]undecan-3-one hydrochloride] |  | pKi: > 6.30 |
| CC(C)C1OC2(CCN(CCc3cccnc3[N+](=O)[O-])CC2)CN(c2ccccc2F)C1=O (stereo not shown) [Example 39, 4-(2-fluorophenyl)-2-isopropyl-9-(2-(2-nitropyridin-3-yl)ethyl)-1-oxa-4,9-diazaspiro[5.5]undecan-3-one] | < 6.30 |  |
| CC1OC2(CCN(CCc3ccnc(C(F)(F)F)c3)CC2)CN(c2ccccc2)C1=O.Cl (stereo not shown) [Example 40, 2-methyl-4-phenyl-9-(2-(2-(trifluoromethyl)pyridin-4-yl)ethyl)-1-oxa-4,9-diazaspiro[5.5]undecan-3-one hydrochloride] |  | μ and σ1 dual binding: ++ |
| CC1OC2(CCN(CCc3cc(C#N)ccn3)CC2)CN(c2ccccc2)C1=O (stereo not shown) [Example 41, 2-(2-(2-methyl-3-oxo-4-phenyl-1-oxa-4,9-diazaspiro[5.5]undecan-9-yl)ethyl)isonicotinonitrile] |  | μ and σ1 dual binding [2]: ++ |
| CC1OC2(CCN(CCc3cccc(N)n3)CC2)CN(c2cnccc2C(F)(F)F)C1=O (stereo not shown) [Example 42, 9-(2-(6-aminopyridin-2-yl)ethyl)-2-methyl-4-(4-(trifluoromethyl)pyridin-3-yl)-1-oxa-4,9-diazaspiro[5.5]undecan-3-one hydrochloride] | < 6.30 |  |
| CC1OC2(CCN(CCc3cccnc3[N+](=O)[O-])CC2)CN(c2cnccc2C(F)(F)F)C1=O (stereo not shown) [Example 43, 2-methyl-9-(2-(2-nitropyridin-3-yl)ethyl)-4-(4-(trifluoromethyl)pyridin-3-yl)-1-oxa-4,9-diazasprio[5.5]undecan-3-one] | < 6.30 |  |
| CC1OC2(CCN(CCc3ncccc3Cl)CC2)CN(c2cnccc2C(F)(F)F)C1=O.Cl (stereo not shown) [Example 44, 9-(2-(3-chloropyridin-2-yl)ethyl)-2-methyl-4-(4-(trifluoromethyl)pyridin-3-yl)-1-oxa-4,9-diazaspiro[5.5]undecan-3-one hydrochloride] |  | μ and σ1 dual binding: ++ |
| CC1OC2(CCN(CCc3ncccc3Cl)CC2)CN(Cc2ccc(C(F)(F)F)cn2)C1=O (stereo not shown) [Example 45, 9-(2-(3-chloropyridin-2-yl)ethyl)-2-methyl-4-((5-(trifluoromethyl)pyridin-2-yl)methyl)-1-oxa-4,9-diazaspiro[5.5]undecan-3-one hydrochloride] | > 7.00 |  |
| CC1OC2(CCN(CCc3ncccc3Cl)CC2)CN(Cc2ccc(F)cn2)C1=O (stereo not shown) [Example 46, 9-(2-(3-chloropyridin-2-yl)ethyl)-4-((5-fluoropyridin-2-yl)methyl)-2-methyl-1-oxa-4,9-diazaspiro[5.5]undecan-3-one hydrochloride] | > 6.30 |  |
| CC1OC2(CCN(CCc3ncccc3F)CC2)CN(Cc2ccc(F)cn2)C1=O (stereo not shown) [Example 47, 9-(2-(3-fluoropyridin-2-yl)ethyl)-4-((5-fluoropyridin-2-yl)methyl)-2-methyl-1-oxa-4,9-diazaspiro[5.5]undecan-3-one hydrochloride] | > 6.30 |  |
| CC1OC2(CCN(CCc3ncccc3F)CC2)CN(c2cccnc2C(F)(F)F)C1=O (stereo not shown) [Example 48, 9-(2-(3-fluoropyridin-2-yl)ethyl)-2-methyl-4-(2-(trifluoromethyl)pyridin-3-yl)-1-oxa-4,9-diazaspiro[5.5]undecan-3-one] | < 6.30 |  |
| CC1OC2(CCN(CCc3cccc(C(F)(F)F)n3)CC2)CN(Cc2ccc(F)cn2)C1=O.Cl (stereo not shown) [Example 49, 4-((5-fluoropyridin-2-yl)methyl)-2-methyl-9-(2-(6-(trifluoromethyl)pyridin-2-yl)ethyl)-1-oxa-4,9-diazaspiro[5.5]undecan-3-one hydrochloride] |  | μ and σ1 dual binding: ++ |
| CC1OC2(CCN(CCc3ccncc3Cl)CC2)CN(c2ccccc2)C1=O (stereo not shown) [Example 50, 9-(2-(3-chloropyridin-4-yl)ethyl)-2-methyl-4-phenyl-1-oxa-4,9-diazaspiro[5.5]undecan-3-one hydrochloride] |  | pKi: > 6.30 |
| COc1ccc(CCN2CCC3(CC2)CN(c2ccccc2)C(=O)CO3)cc1 [Example 52, 9-(4-methoxyphenethyl)-4-phenyl-1-oxa-4,9-diazaspiro[5.5]undecan-3-one] |  | μ and σ1 dual binding [2]: ++ |
| CC1OC2(CCN(CCc3cccs3)CC2)CN(c2ccccc2)C1=O (stereo not shown) [Example 53, 2-methyl-4-phenyl-9-(2-(thiophen-2-yl)ethyl)-1-oxa-4,9-diazaspiro[5.5]undecan-3-one] |  | pKi: > 7.00 |
| CC1OC2(CCN(CCc3cccc(F)c3)CC2)CN(c2ccccc2)C1=O (stereo not shown) [Example 54, 9-(3-fluorophenethyl)-2-methyl-4-phenyl-1-oxa-4,9-diazaspiro[5.5]undecan-3-one hydrochloride] | > 7.00 |  |
| CC1OC2(CCN(CCc3ccc(F)cc3)CC2)CN(c2ccccc2)C1=O (stereo not shown) [Example 55, 9-(4-fluorophenethyl)-2-methyl-4-phenyl-1-oxa-4,9-diazaspiro[5.5]undecan-3-one hydrochloride] | > 7.00 |  |
| CC1OC2(CCN(CCn3cccn3)CC2)CN(c2ccccc2)C1=O (stereo not shown) [Example 56] |  | μ and σ1 dual binding [2]: ++ |
| COc1ccccc1CCN1CCC2(CC1)CN(c1ccccc1)C(=O)C(C)O2 (stereo not shown) [Example 57, 9-(2-methoxyphenethyl)-2-methyl-4-phenyl-1-oxa-4,9-diazaspiro[5.5]undecan-3-one hydrochloride] |  | pKi: > 7.00 |

| SMILES | pKi [1] | further results |
| --- | --- | --- |
| CC1OC2(CCN(CCc3ccccn3)CC2)CN(c2ccccc2)C1=O (stereo not shown) [Example 58, 2-methyl-4-phenyl-9-(2-(pyridin-2-yl)ethyl)-1-oxa-4,9-diazaspiro[5.5]undecan-3-one] | > 7.00 |  |
| CC1OC2(CCN(CC3CCOCC3)CC2)CN(c2ccccc2)C1=O.Cl (stereo not shown) [Example 59, 2-methyl-4-phenyl-9-((tetrahydro-2H-pyran-4-yl)methyl)-1-oxa-4,9-diazaspiro[5.5]undecan-3-one hydrchloride] |  | μ and σ1 dual binding: ++ |
| CC1OC2(CCN(CCCc3ccccc3)CC2)CN(c2ccccc2)C1=O (stereo not shown) [Example 60, 2-methyl-4-phenyl-9-(3-phenylpropyl)-1-oxa-4,9-diazaspiro[5.5]undecan-3-one hydrochloride] |  | pKi: > 6.30 |
| Cc1ncsc1CCN1CCC2(CC1)CN(c1ccccc1)C(=O)C(C)O2 (stereo not shown) [Example 61, 2-methyl-9-(2-(4-methylthiazol-5-yl)ethyl)-4-phenyl-1-oxa-4,9-diazaspiro[5.5]undecan-3-one hydrochloride] |  | pKi: > 6.30 |
| CC1OC2(CCN(CCn3ccc4ccccc43)CC2)CN(c2ccccc2)C1=O (stereo not shown) [Example 62, 9-(2-(1H-indol-1-yl)ethyl)-2-methyl-4-phenyl-1-oxa-4,9-diazaspiro[5.5]undecan-3-one hydrochloride] |  | pKi: > 7.00 |
| COC(=O)CCN1CCC2(CC1)CN(c1ccccc1)C(=O)C(C)O2 (stereo not shown) [Example 64, methyl 3-(2-methyl-3-oxo-4-phenyl-1-oxa-4,9-diazaspiro[5.5]undecan-9-yl)propanoate] | < 6.30 |  |
| CC1OC2(CCN(CCN3CCOCC3)CC2)CN(c2ccccc2)C1=O (stereo not shown) [Example 65, 2-methyl-9-(2-morpholinoethyl)-4-phenyl-1-oxa-4,9-diazaspiro[5.5]undecan-3-one] | < 6.30 |  |
| CC1OC2(CCN(CCc3ccc([N+](=O)[O-])cc3)CC2)CN(c2ccccc2)C1=O (stereo not shown) [Example 66, 2-methyl-9-(4-nitrophenethyl)-4-phenyl-1-oxa-4,9-diazaspiro[5.5]undecan-3-one] | < 6.30 |  |
| CC1OC2(CCN(CCc3cccc([N+](=O)[O-])c3)CC2)CN(c2ccccc2)C1=O (stereo not shown) [Example 67, 2-methyl-9-(3-nitrophenethyl)-4-phenyl-1-oxa-4,9-diazaspiro[5.5]undecan-3-one] | < 6.30 |  |
| CC1OC2(CCN(CCc3ccccc3[N+](=O)[O-])CC2)CN(c2ccccc2)C1=O (stereo not shown) [Example 68, 2-methyl-9-(2-nitrophenethyl)-4-phenyl-1-oxa-4,9-diazapspiro[5.5]undecan-3-one] | < 6.30 |  |
| CC1OC2(CCN(CCn3ccc4cccnc43)CC2)CN(c2ccccc2)C1=O.Cl (stereo not shown) [Example 69, 9-(2-(1H-pyrrolo[2,3-b]pyridin-1-yl)ethyl)-2-methyl-4-phenyl-1-oxa-4,9-diazaspiro[5.5]undecan-3-one hydrochloride] |  | μ and σ1 dual binding: ++ |
| COC(=O)c1ccc(CCN2CCC3(CC2)CN(c2ccccc2)C(=O)C(C)O3)cc1.Cl (stereo not shown) [Example 70, methyl 4-(2-(2-methyl-3-oxo-4-phenyl-1-oxa-4,9-diazaspiro[5.5]undecan-9-yl)ethyl)benzoate hydrochloride] |  | μ and σ1 dual binding: ++ |
| CC1OC2(CCN(CC(=O)Nc3ccccc3)CC2)CN(c2ccccc2)C1=O (stereo not shown) [Example 71, 2-(2-methyl-3-oxo-4-phenyl-1-oxa-4,9-diazaspiro[5.5]undecan-9-yl)-N-phenylacetamide] | < 6.30 |  |
| CC1OC2(CCN(CCOc3ccccc3)CC2)CN(c2ccccc2)C1=O.Cl (stereo not shown) [Example 72, 2-methyl-9-(2-phenoxyethyl)-4-phenyl-1-oxa-4,9-diazaspiro[5.5]undecan-3-one hydrochloride] |  | μ and σ1 dual binding: ++ |
| CC1OC2(CCN(CCc3cccnc3)CC2)CN(c2ccccc2)C1=O (stereo not shown) [Example 73, 2-methyl-4-phenyl-9-(2-(pyridin-3-yl)ethyl)-1-oxa-4,9-diazaspiro[5.5]undecan-3-one] | > 6.30 |  |
| CC1OC2(CCN(CCn3c(=O)oc4ccccc43)CC2)CN(c2ccccc2)C1=O (stereo not shown) [Example 74, 3-(2-(2-methyl-3-oxo-4-phenyl-1-oxa-4,9-diazaspiro[5.5]undecan-9-yl)ethyl)benzo[d]oxazol-2(3H)-one hydrochloride] | > 6.30 |  |
| CC1OC2(CCN(CCc3cccc(C#N)c3)CC2)CN(c2ccccc2)C1=O (stereo not shown) [Example 75, 3-(2-(2-methyl-3-oxo-4-phenyl-1-oxa-4,9-diazaspiro[5.5]undecan-9-yl)ethyl)benzonitrile hydrochloride] | > 7.00 |  |
| CC1OC2(CCN(CCc3ccc(C#N)cc3)CC2)CN(c2ccccc2)C1=O.Cl (stereo not shown) [Example 76, 4-(2-(2-methyl-3-oxo-4-phenyl-1-oxa-4,9-diazaspiro[5.5]undecan-9-yl)ethyl)benzonitrile hydrochloride] |  | μ and σ1 dual binding: ++ |
